From US7211561B2, “Method for inducing selective cell death of malignant cells by activation of calcium-activated potassium channels (KCa)” (Cedars-Sinai Medical Center, priority 2001, dated 2007)

Columns and labels:
[1] = tested on: 9L rat glioma cells; experiment: Cell proliferation assay (WST-1, OD 450 nm); format: cell-based; conditions: 1–100 μg/mL, 4 hours, dose-dependent (FIG. 1)
Method: (§1) Primary cell lines were prepared from human gliomas (glioblastoma multiforme [GBM] or astrocytoma) or established rat glioma cell lines (RG2, C6 and 9L) were used. Cultured human normal cell lines, brain microvessel endothelial cells (HBMVEC), or fetal astrocytes were used.
(§2) Cells (5×10^4 cells) were cultured in each well of 96-well microtiter culture plates and were allowed to achieve confluency to form a monolayer of cells in each well. For dose response studies cells were incubated with different concentrations (1–100 μg/mL) of NS-1619 or minoxidil sulfate for 4 hours at 37° C. in a CO2 (5%) incubator. Cells washed twice carefully with respective medium, and allowed to incubate overnight at 37° C. under 5% CO2. The following day, cells were incubated with WST-1 reagent (Boehringer Mannheim) at 37° C. in a CO2 (5%) incubator for 60–90 minutes, and optical density at 450 nm was measured with a 96-well plate reader. The magnitude of OD indicated the number of viable cells, greater the OD, higher the number of viable cells, correlated a standard curve of cell numbers.

[2] = tested on: C6 rat glioma cells; experiment: Cell proliferation assay (WST-1, OD 450 nm); format: cell-based; conditions: 1–100 μg/mL, 4 hours, dose-dependent (FIG. 1)
Method: as §1, §2

[3] = tested on: RG2 rat glioma cells; experiment: Cell proliferation assay (WST-1, OD 450 nm); format: cell-based
Method: as §1, §2

[4] = tested on: human normal brain microvessel endothelial cells (HBMVEC); experiment: Cell proliferation assay (WST-1, OD 450 nm); format: cell-based
Method: as §1, §2

[5] = tested on: human normal fetal astrocytes (HFA); experiment: Cell proliferation assay (WST-1, OD 450 nm); format: cell-based
Method: as §1, §2

[6] = tested on: primary human GBM glioma cell line; experiment: Cell proliferation assay (WST-1, OD 450 nm); format: cell-based
Method: as §1, §2

[7] = tested on: primary human astrocytoma cell line; experiment: Cell proliferation assay (WST-1, OD 450 nm); format: cell-based; conditions: 1–100 μg/mL, 4 hours, dose-dependent (FIG. 2)
Method: as §1, §2

[8] = tested on: U87 human glioma cells; experiment: In vitro apoptosis assay (Annexin V-FITC/propidium iodide, FACS); format: cell-based; conditions: 50 μg/mL
Method: (§3) Human glioma cells (U-87) and HBMVECells were seeded into a 25-mL tissue-culture flask. After 24 h (about 60–70% confluencey), cells were treated with either […] (50 or 100 micrograms/mL) or staurosporine (positive control; 5 μM), a known inducer of apoptosis (Tamaoki, T., et al., Staurosporine, a potent inhibitor of phospholipid/Ca^++ dependent protein kinase, Biochem. Biophys. Res. Commun. 135: 397–402 [1986]; Matsumoto, H., and Sasaki, Y., Staurosporine, a protein kinase C inhibitor interferes with proliferation of arterial smooth muscle cells, Biochem. Biophys. Res. Commun. 158:105–109 [1989]). U-87 cells were returned to the CO2 incubator and incubated overnight. The following day, cells were washed twice with fresh growth medium and cells prepared for FACS analysis as described hereinbelow.
The changes in plasma membrane are one of the earliest events in cell death. In apoptotic cells the membrane phospholipid phosphatidylserine (PS) is translocated from the inner to the outer leaflet of the cell membrane in the early phases of apoptosis. Annexin V is a Ca^2+-dependent, phospholipid-binding protein that binds to PS with high affinity. Consequently, Annexin V (PharMingen) conjugated to a label, such as fluorescein isothiocyanate (FITC) or biotin, serves as a sensitive probe for flow cytometry analysis of cells that are undergoing apoptosis. […] (PharMingen; Vermes, I. et al., A novel assay for apoptosis. Flow cytometric detection of phosphatidylserine expression on early apoptotic cells using fluorescein labelled Annexin V, J. Immunol. Meth. 184:39–51 [1995]). Concurrently, propidium iodide is typically used as a standard flow cytometric viability probe, because the intact cell membranes of viable cells exclude propidium iodide, whereas the cell membranes of dead and damaged cells are permeable to propidium iodide. Cells that stain positive for Annexin V and negative for propidium iodide are undergoing apoptosis; cells that stain positive for both Annexin V and propidium iodide are either at the end stage of apoptosis, are undergoing necrosis, or are already dead; and cells that stain negative for both Annexin V-biotin and propidium iodide are alive and not undergoing measurable apoptosis. Briefly, the cells were washed twice with cold PBS and then resuspended in 1× binding buffer (10 mM HEPES/NaOH, pH 7.4, 140 mM NaCl, 2.5 mM CaCl2; 4° C.) at a concentration of about 1×10^6 cells/mL. A 100-μL aliquot of cell suspension was transferred to 5-mL culture tubes, and 2.5 μL of Annexin V-FITC and 2.5-μL of propidium iodide (PharMingen) were added to each tube. The cell suspensions were gently mixed and incubated for 15 min at room temperature in the dark, after which 400 μL of binding buffer was added to each tube of cells. […]

[9] = tested on: malignant 9L cells; experiment: as above; format: cell-based, rat; conditions: 50 μg/mL (FIG. 6E)
Source text: (§4) The changes in plasma membrane are one of the earliest events in cell death. In apoptotic cells the membrane phospholipid phosphatidylserine (PS) is translocated from the inner to the outer leaflet of the cell membrane in the early phases of apoptosis. Annexin V is a Ca^2+-dependent, phospholipid-binding protein that binds to PS with high affinity. Consequently, Annexin V (PharMingen) conjugated to a label, such as fluorescein isothiocyanate (FITC) or biotin, serves as a sensitive probe for flow cytometry analysis of cells that are undergoing apoptosis. […] (PharMingen; Vermes, I. et al., A novel assay for apoptosis. Flow cytometric detection of phosphatidylserine expression on early apoptotic cells using fluorescein labelled Annexin V, J. Immunol. Meth. 184:39–51 [1995]). Concurrently, propidium iodide is typically used as a standard flow cytometric viability probe, because the intact cell membranes of viable cells exclude propidium iodide, whereas the cell membranes of dead and damaged cells are permeable to propidium iodide. Cells that stain positive for Annexin V and negative for propidium iodide are undergoing apoptosis; cells that stain positive for both Annexin V and propidium iodide are either at the end stage of apoptosis, are undergoing necrosis, or are already dead; and cells that stain negative for both Annexin V-biotin and propidium iodide are alive and not undergoing measurable apoptosis. Briefly, the cells were washed twice with cold PBS and then resuspended in 1× binding buffer (10 mM HEPES/NaOH, pH 7.4, 140 mM NaCl, 2.5 mM CaCl2; 4° C.) at a concentration of about 1×10^6 cells/mL. A 100-μL aliquot of cell suspension was transferred to 5-mL culture tubes, and 2.5 μL of Annexin V-FITC and 2.5-μL of propidium iodide (PharMingen) were added to each tube. The cell suspensions were gently mixed and incubated for 15 min at room temperature in the dark, after which 400 μL of binding buffer was added to each tube of cells. The cells were then washed once with 1×binding buffer. Analysis by flow cytometry was then conducted immediately, and no later than within one hour. The resulting analytic FACS graphs were typically divided into four quadrants wherein the upper right (UR) quadrant represented the number of necrotic cells; the lower left (LL) quadrant represented the number of viable cells; the lower right (LR) quadrant represented the number of apoptotic cells; and the upper left (UL) represented cells of an intermediate category, which generally represents cell debris and DNA fragments. The percentage of gated events in each quadrant was used to determine the total percentage of apoptotic and necrotic cells in each cell suspension.

[10] = tested on: malignant C6 cells; experiment: as above; format: cell-based, rat; conditions: 50 μg/mL (FIG. 6C)
Source text: as §4

[11] = tested on: malignant RG2 cells; experiment: as above; format: cell-based, rat; conditions: 50 μg/mL (FIG. 6A)
Source text: as §4

[12] = tested on: primary human GBM cells; experiment: as above; format: cell-based; conditions: 50 μg/mL (FIG. 7A)
Source text: The changes in plasma membrane are one of the earliest events in cell death. In apoptotic cells the membrane phospholipid phosphatidylserine (PS) is translocated from the inner to the outer leaflet of the cell membrane in the early phases of apoptosis. Annexin V is a Ca^2+-dependent, phospholipid-binding protein that binds to PS with high affinity. Consequently, Annexin V (PharMingen) conjugated to a label, such as fluorescein isothiocyanate (FITC) or biotin, serves as a sensitive probe for flow cytometry analysis of cells that are undergoing apoptosis. […] (PharMingen; Vermes, I. et al., A novel assay for apoptosis. Flow cytometric detection of phosphatidylserine expression on early apoptotic cells using fluorescein labelled Annexin V, J. Immunol. Meth. 184:39–51 [1995]). Concurrently, propidium iodide is typically used as a standard flow cytometric viability probe, because the intact cell membranes of viable cells exclude propidium iodide, whereas the cell membranes of dead and damaged cells are permeable to propidium iodide. […]

[13] = tested on: non-malignant HBMVEC; experiment: as above; format: cell-based, human; conditions: 50 μg/mL (FIG. 7C)
Method: as §3
The changes in plasma membrane are one of the earliest events in cell death. In apoptotic cells the membrane phospholipid phosphatidylserine (PS) is translocated from the inner to the outer leaflet of the cell membrane in the early phases of apoptosis. Annexin V is a Ca^2+-dependent, phospholipid-binding protein that binds to PS with high affinity. Consequently, Annexin V (PharMingen) conjugated to a label, such as fluorescein isothiocyanate (FITC) or biotin, serves as a sensitive probe for flow cytometry analysis of cells that are undergoing apoptosis. […]

[14] = tested on: implanted RG2 glioma tumor in Wistar rats; experiment: In vivo apoptosis, intracarotid infusion, implanted tumor tissue (FACS); set-up: species or system rat
Source text: as §4
A rat tumor model, which consisted of intracranially implanted RG2 cells (rat glioma cell line) in Wistar rats, was employed to investigate whether any of several potassium channel activators induce selective apoptosis of tumor cells in vivo.
The techniques for RG2 cell propagation and maintenance in tissue culture have been described (Sugita, M. and Black, K. L., Cyclic GMP-specific phosphodiesterase inhibition and intracarotid bradykinin infusion enhances permeability into brain tumors, Cancer Res. 58(5):914–20 [1998]; Inamura et al. [1994]; Nakano, S. et al., Increased brain tumor microvessel permeability after intracarotid bradykinin infusion is mediated by nitric oxide, Cancer Res. 56(17):4027–31 [1996]). Briefly, RG2 cells derived from a rat glioma are kept frozen until use, then are thawed and maintained in a monolayer culture in F12 medium with 10% calf serum.
The Wistar rats (approximately 140–160 g body weight) were anesthetized with intra-peritoneal ketamine (50 mg/kg), and glial cells (1×10^5) were implanted into the right hemisphere, but not the contralateral hemisphere, by intracerebral injection suspended in 5 μL F12 medium (1–2% methylcellulose) by a Hamilton syringe. The implantation coordinates were 3-mm lateral to the bregma and 4.5 mm deep to the dural surface. […]

[15] = tested on: PTK activity in RG2 cell lysate; experiment: Protein tyrosine kinase (PTK) assay; format: biochemical, rat; conditions: 1–50 μM (FIG. 10)
Method: A PTK assay kit (The Oncogene Research Products, Boston, Mass.) was used to determine the presence and relative amounts of protein kinase activity in tissue cytosols and cell extracts. Briefly, 1×10^4 RG2 cells seeded in a 50-mL culture flask, and allowed to achieve confluency to form a monolayer at 37° C. in a CO2 incubator.
Briefly, RG2 cells were harvested after trypsinization, and cells were pelleted by centrifugation. Cells were resuspended with extraction buffer (20 mM Tris, pH 7.4, 50 mM NaCl, 1 mM EDTA, 1 mM EGTA, 0.2 mM PMSF, 1 μg/mL pepstatin, 0.5 μg/mL leupetin, 0.2 mM Na3VO4, 5 mM mercaptoethanol, 0.1% Triton X-100), and cells were lysed using a cell homogenizer. After centrifugation, supernatant was separated from the pellet for PTK assay. The supernatant was treated with superoxide dismutase. Pervanadate (100 mM) was used in the PTK assay to inhibit […] activity, and protein concentration was determined by Lowry's method using a Bio-Rad protein assay kit. […]
Assay for PTK activity in RG2 cell-lysates was then performed according to the protocol supplied by the PTK assay kit's manufacturer. After adding the stop solution, absorbance measured in each well at 450 nm using a Spectramax Plus (Molecular Devices, Sunnyvale, Calif.).

[16] = Solubility in water; format: physicochemical
Source text: The skilled practitioner is cautious in regulating the final concentration of solvent in the infusion solution to avoid solvent-related toxicity. For example, a final ethanol concentration in an infusion solution up to 5–10% (v/v) is tolerated by most mammalian subjects with negligible toxicity.

[17] = RG2 tumor, 50 μg/kg body mass, two consecutive daily doses, intracarotid (FIG. 8C)
[18] = RG2 tumor, 100 μg/kg body mass, three consecutive daily bolus doses (FIG. 9C)
[19] = RG2 tumor, 100 μg/kg body mass/day for two days, another rat (FIG. 8G)
[20] = RG2 tumor, 100 μg/kg body mass/day for two days, one rat (FIG. 8E)

O=c1[nH]c2cc(C(F)(F)F)ccc2n1-c1cc(C(F)(F)F)ccc1O [NS-1619, 1,3-dihydro-1-[2-hydroxy-5-(trifluoromethyl)phenyl]-5-(trifluoromethyl)-2H-benzimidazol-2-one]
cell proliferation [1]: significantly blocks cell proliferation
cell proliferation [2]: significantly blocks cell proliferation
cell death ([3]; 50 μg/mL (FIG. 3)): 70%
cell proliferation ([3]; 1–100 μg/mL, 4 hours, dose-dependent (FIG. 1)): significantly blocks cell proliferation
sensitivity (cell death) ([4]; HBMVEC, 50 μg/mL (FIG. 4)): insensitive
cell proliferation ([4]; normal HBMVEC, 1–100 μg/mL, 4 hours (FIG. 2)): without affecting
sensitivity (cell death) ([5]; HFA, 50 μg/mL (FIG. 4)): insensitive
cell proliferation ([5]; normal HFA, 1–100 μg/mL, 4 hours (FIG. 2)): without affecting
cell death ([6]; 50 μg/mL (FIG. 4)): 90%
cell proliferation ([6]; 1–100 μg/mL, 4 hours, dose-dependent (FIG. 2)): significantly blocked cell proliferation
cell proliferation [7]: significantly blocked cell proliferation
apoptotic cells [8]: 21%
necrotic cells [8]: 14%
apoptotic cells [9]: 42%
necrotic cells [9]: 32%
apoptotic cells [10]: 25%
necrotic cells [10]: 35%
apoptosis [11]: 29%
necrosis [11]: 29%
apoptosis [12]: 24%
necrosis [12]: 49%
apoptosis [13]: 4%
induction of necrosis [13]: did not significantly induce
apoptotic cells [14, 17]: 28%
necrotic cells [14, 17]: 24%
apoptosis [14, 18]: 55%
necrosis [14, 18]: 9%
apoptosis [14, 19]: 34%
necrosis [14, 19]: 9%
apoptosis [14, 20]: 44%
necrosis [14, 20]: 15%
cell death in tumor tissue ([14]; infusion for two or three consecutive days at up to 100 μg/kg body mass): inducing a selective cell death in tumor tissue
PTK activity [15]: did not significantly affect PTK activity
solubility in water [16]: not easily dissolved in water

CC(C)[C@@H]1NC(=O)[C@H](C)OC(=O)[C@@H](C(C)C)NC(=O)[C@@H](C(C)C)OC(=O)[C@H](C(C)C)NC(=O)[C@H](C)OC(=O)[C@@H](C(C)C)NC(=O)[C@@H](C(C)C)OC(=O)[C@H](C(C)C)NC(=O)[C@H](C)OC(=O)[C@@H](C(C)C)NC(=O)[C@@H](C(C)C)OC1=O [Valinomycin]
PTK activity [15]: inhibited PTK activity in RG2 cell lysate in a dose-dependent manner
